The record followed here is patent US20110009332A1, “Therapeutic Treatment Of Wounds” (SOUTHWEST RESEARCH INSTITUTE, priority 2009, published 2011).

Assay [1] has as its system BMP-1. Nature of the assay: BMP-1 gene expression (qPCR, normalized over 18S) in human dermal fibroblasts. Format: cell-based. Here is the method:
An examination of gene expression of BMP-1 was conducted using a number of proteasome inhibitors including, proteasome inhibitor-1, curcumin, MG-132 and bortezomib. Human neonatal dermal fibroblasts (AllCells, Catalog No. HN006001) were maintained in Dulbecco's modified Eagle's medium (DMEM) supplemented with 10% fetal bovine serum. Early passage cells were plated at 2×10^4 cells/cm^2 and grown in humidified 5% CO2 at 37° C. for 24 hours. Spent media was replaced the following day with assay media including Proteasome inhibitor-1 was added in DMEM at 1 μM and 0.1 μM. Untreated cells were used as the control group. For the human osteogenesis PCR array, the experimental group was treated only at 1 μM. In addition, in separate trials, spent media was replace by assay media of curcumin added in DMEM at 10 μM and 100 μM, MG-132 in DMEM at 0.1 μM and 1 μM, and bortezomib in DMEM at 0.1 μm and 1 μM.
Phenol-chloroform extraction was performed to isolate the total RNA for real time polymerase chain reaction array. More specifically, the total RNA was prepared using TRI REAGENT (Ambion, product number 9738), wherein the total RNA was obtained from the human neonatal dermal fibroblasts. Note that isolation was performed as per the instructions provided with the TRI REAGENT. The RNA was used for subsequent quantitative polymerase chain reaction (qPRC) gene expression of BMP1 measured using hydrolysis probes (TAQMAN probes available from Applied Biosystems) as described further below.
Concentration and integrity of the obtained total RNA was assessed by absorbance in a spectrophotometer at 260 nm and 280 nm and by electrophoresis in 1% agarose with formaldehyde loading dye. For TAQMAN gene expression assays, cDNA was synthesized from 2 μg of total RNA using the High Capacity cDNA Reverse Transcription Kit (Applied Biosystems, product number 4368814), again following the protocol supplied with the kit. The resulting cDNA was diluted 1:10.
For TAQMAN gene expression, gene-specific fluorescent labeled TAQMAN primers for FAM-BMP1 (Applied Biosystems, product Hs0098677.g1) and TAQMAN reference VIC-18S ribosomal RNA (Applied Biosystems, product number 4310893E) were used to target the gene of interest. A cocktail of universal master mix (Applied Biosystems, product number 4369016) was prepared individually for both set of primers which contained Taq Polymerase, dNTPs, and buffer. Template cDNA's were added separately to respective individual wells in triplicate samples. PCR was performed on StepOne Plus Real Time System instrument (Applied Biosystems). The amplification program consisted of 1 cycle of 95° C. with 10 minute hold (hot start) followed by 50 cycles of 95° C. with 15 second annealing hold and 1 minute 60° C. specified acquisition hold.
For human osteogenisis PCR array, total RNA was prepared using silica matrix purification using RNEASY MINI KIT (Qiagen, product number 74101) according to the manufacturer's recommendations. cDNA was synthesized from 1 μg of purified DNA-free RNA accordingly to RT^2First Strand Kit (SABiosciences, C-03). The resulting cDNA was diluted 1:30 and amplified. The procedure for the PCR array using real-time PCR is based on the RT^2 Profiler PCR array system instructions for Human Osteogenesis (SABiosciences, product number PAHS-026C). A cocktail reaction mix was setup as recommended by the PCR manufacturer (SABiosceiences, product number PA-012). PCR was performed using the same temperature parameters as used with the StepOne Plus Real Time System instrument. The Ct value of endogenous reference gene (i.e. 18s) was used to control for input RNA and then used to normalize target gene (i.e. BMP-1) tested from the same cDNA sample (Δ Ct), and then calibrated to an internal reference sample (ΔΔCt). Change in gene expression was determined by the expression 2̂-(ΔΔCt). […]
(Real-time PCR tracks product formation cycle by cycle.)

Assay [2] concerns the target 20S proteasomes (Homo sapiens, UniProt P28074). Briefly: Inhibition of 20S proteasome enzyme activity. Format: biochemical. To be noted: 0 nM to 10,000 nM, FIGS. 7-9. On the procedure:
The IC50 may be understood as the amount of a particular substance/molecule needed to inhibit a given biological process in vitro by 50% and may be an indicator of the potency of a compound. The activity of the proteasome may be quantified by measuring the amount of fluorescence produced by cleavage of a fluorogenic substrate, such as LLVY-AMC, which when released by proteasomal cleavage, may emit fluorescent light.
The enzyme activity of 20S proteasomes was measured upon increasing addition of the proteasome inhibitors PS-1, curcumin and genestein in concentrations ranging from 0 nM to 10,000 nM. In particular, FIG. 7 illustrates the inhibition of 20S proteasomes upon the addition of PS-1. […] FIG. 8 illustrates the inhibition of the 20S proteasomes upon the addition of curcumin. […] FIG. 9 illustrates the inhibition of the 20S proteasomes upon the addition of genestein.

The mark [3] stands for this setting: 0.1 μM inhibitor, FIG. 27, nontreated approximately 1.52 (MG132) / 1.50 (bortezomib), may not be statistically significant.
Where [4] appears, read: 1 μM inhibitor, FIG. 27, nontreated approximately 1.52 (MG132) / 1.50 (bortezomib), may not be statistically significant.

Where a SMILES comes first, the peptide text is derived from it. The star is where a group is joined. Cbz = O=C(OCc1ccccc1)*; OtBu = CC(C)(C)O*

For `CC(C)C[C@@H](C=O)NC(=O)[C@H](CC(C)C)NC(=O)[C@H](CC(C)C)NC(=O)OCc1ccccc1` [MG132] (Cbz-Leu-Leu-Leu-aldehyde), the “BMP-1/18S mRNA levels” value in assay [1] (setting [3]) stood at 1.10 a.u; in assay [1] (setting [4]), 1.09 a.u.

In the case of `CC[C@H](C)[C@H](NC(=O)OCc1ccccc1)C(=O)N[C@@H](CCC(=O)OC(C)(C)C)C(=O)N[C@@H](C)C(=O)N[C@H](C=O)CC(C)C` [PS-1, Z-Ile-Glu(OBu^t)-Ala-Leu-H] (Cbz-IE(OtBu)AL-aldehyde), the “enzyme activity of 20S proteasomes with increasing inhibitor concentration (in words)” value in assay [2] is recorded as “enzyme activity decreased”. The “BMP-1/18S mRNA levels” value was 0.436 a.u in assay [1] (0.1 μM PS-1, FIG. 25, nontreated approximately 1.26) and 0.480 a.u in assay [1] (1.0 μM PS-1, FIG. 25, nontreated approximately 1.26).

For the compound `CC(C)C[C@H](NC(=O)[C@H](Cc1ccccc1)NC(=O)c1cnccn1)B(O)O` [bortezomib], the “BMP-1/18S mRNA levels” value in assay [1] (setting [3]) and in assay [1] (setting [4]) was 1.27 a.u in each case.

On to `COc1cc(/C=C/C(=O)CC(=O)/C=C/c2ccc(O)c(OC)c2)ccc1O` [curcumin], for which the “enzyme activity of 20S proteasomes with increasing inhibitor concentration (in words)” value in assay [2] was “shown to decrease as well”. In addition, the “BMP-1/18S mRNA levels” value is given as 1.68 a.u in assay [1] (10 μM curcumin, FIG. 26, nontreated approximately 1.26) and 0.882 a.u in assay [1] (100 μM curcumin, FIG. 26, nontreated approximately 1.26).
